Reference: PubChem BioAssay AID248 (DTP/NCI, 2004)
Where “and” joins values, the source holds several entries; their conditions need not be identical. Equal values may be shown once. Toxic doses and inconclusive results are not listed. No stated cut-off is given here; in the data, active means T/C of 150% or more; inactive means T/C below 125%.

Test system: L1210 leukemia ip in BDF1 mice, survival T/C
Experiment: NCI In Vivo Anticancer Drug Screen. Data for tumor model L1210 Leukemia (intraperitoneal) in B6D2F1 (BDF1) mice
Details: endpoint: mean survival time, higher = longer survival
Summary of the method: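 Survival endpoint. Drug-treated group vs vehicle group, expressed as T divided by C. Tumor passaged by transplantation.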

[1] = dose: 50.0 mg/kg/injection, schedule: Q01DX001 (ip), vehicle: saline
[2] = dose: 100.0 mg/kg/injection, schedule: Q01DX001 (ip), vehicle: saline
[3] = dose: 200.0 mg/kg/injection, schedule: Q01DX001 (ip), vehicle: saline
[4] = dose: 400.0 mg/kg/injection, schedule: Q01DX001 (ip), vehicle: saline
[5] = dose: 100.0 mg/kg/injection, schedule: Q04DX003 (ip), vehicle: saline with Tween-80
[6] = dose: 200.0 mg/kg/injection, schedule: Q04DX003 (ip), vehicle: saline with Tween-80
[7] = dose: 400.0 mg/kg/injection, schedule: Q04DX003 (ip), vehicle: saline with Tween-80
[8] = dose: 100.0 mg/kg/injection, schedule: Q04DX003 (ip), vehicle: Klucel (hydroxypropylcellulose) (HPC)
[9] = dose: 200.0 mg/kg/injection, schedule: Q04DX003 (ip), vehicle: Klucel (hydroxypropylcellulose) (HPC)
[10] = dose: 400.0 mg/kg/injection, schedule: Q04DX003 (ip), vehicle: Klucel (hydroxypropylcellulose) (HPC)
[11] = dose: 100.0 mg/kg/injection, schedule: Q01DX009 (ip), vehicle: Klucel (hydroxypropylcellulose) (HPC)
[12] = dose: 100.0 mg/kg/injection, schedule: Q01DX009 (ip), vehicle: saline with Tween-80
[13] = dose: 200.0 mg/kg/injection, schedule: Q01DX009 (ip), vehicle: saline with Tween-80
[14] = dose: 400.0 mg/kg/injection, schedule: Q01DX009 (ip), vehicle: saline with Tween-80
[15] = dose: 200.0 mg/kg/injection, schedule: Q01DX009 (ip), vehicle: Klucel (hydroxypropylcellulose) (HPC)
[16] = dose: 400.0 mg/kg/injection, schedule: Q01DX009 (ip), vehicle: Klucel (hydroxypropylcellulose) (HPC)
[17] = dose: 100.0 mg/kg/injection, schedule: Q04DX003 (ip), vehicle: saline
[18] = dose: 200.0 mg/kg/injection, schedule: Q04DX003 (ip), vehicle: saline
[19] = dose: 400.0 mg/kg/injection, schedule: Q04DX003 (ip), vehicle: saline

Measured: T/C

COC(=O)C1C(=O)C(C(=O)OC)C(C)N(C)C1C (configuration not stated)
inactive: dose: 9.38 mg/kg/injection, schedule: Q01DX001 (ip), vehicle: other 98 % of control | dose: 18.75 mg/kg/injection, schedule: Q01DX001 (ip), vehicle: other 104 % of control | dose: 37.5 mg/kg/injection, schedule: Q01DX001 (ip), vehicle: other 95 % of control

COCC1CCCCC1O (configuration not stated)
inactive: [1] 101 % of control | [2] 95 % of control | [3] 101 % of control | [4] 98 % of control

CCCCSc1cc(NS(=O)(=O)c2ccccc2)ccc1NS(=O)(=O)c1ccccc1
inactive: [5] 97 % of control | [6] 93 % of control | [7] 95 % of control

Nc1ccc(S(=O)(=O)c2ccc(N)cc2)cc1
inactive: dose: 100.0 mg/kg/injection, schedule: Q01DX001 (ip), vehicle: other 100 % of control | [8] 96 % of control | dose: 200.0 mg/kg/injection, schedule: Q01DX001 (ip), vehicle: other 97 % of control | [9] 101 % of control | dose: 400.0 mg/kg/injection, schedule: Q01DX001 (ip), vehicle: other 107 % of control | [10] 101 % of control

O=C1CSc2cc[nH]c21
inactive: [11] 95 % of control | [8] 100 % of control | [9] 95 % of control | [10] 98 % of control

COc1ccc(Cl)cc1NC(=O)OCC(Cl)(Cl)Cl
inactive: dose: 100.0 mg/kg/injection, schedule: Q01DX001 (ip), vehicle: saline with Tween-80 95 % of control | [12] 100 % of control and 102 % of control | dose: 100.0 mg/kg/injection, schedule: Q04DX002 (ip), vehicle: saline with Tween-80 93 % of control and 91 % of control | [5] 103 % of control | dose: 200.0 mg/kg/injection, schedule: Q01DX001 (ip), vehicle: saline with Tween-80 94 % of control | [13] 96 % of control and 115 % of control | dose: 200.0 mg/kg/injection, schedule: Q04DX002 (ip), vehicle: saline with Tween-80 94 % of control and 101 % of control | [6] 94 % of control | dose: 400.0 mg/kg/injection, schedule: Q01DX001 (ip), vehicle: saline with Tween-80 94 % of control | [14] 100 % of control and 91 % of control | dose: 400.0 mg/kg/injection, schedule: Q04DX002 (ip), vehicle: saline with Tween-80 97 % of control and 108 % of control | [7] 97 % of control

O=[N+]([O-])c1cc([N+](=O)[O-])c(Nc2cccc3ccccc23)c([N+](=O)[O-])c1
inactive: dose: 50.0 mg/kg/injection, schedule: Q01DX009 (ip), vehicle: Klucel (hydroxypropylcellulose) (HPC) 94 % of control | [11] 99 % of control | [8] 100 % of control | [15] 100 % of control | [9] 102 % of control | [10] 102 % of control

CCOP(=S)(OCC)SC(C)C
inactive: [5] 97 % of control | [6] 97 % of control

OCC12COC(c3ccccc3)N1C(c1ccccc1)OC2 (configuration not stated)
inactive: [11] 102 % of control | [8] 102 % of control | [15] 102 % of control | [9] 102 % of control | [16] 97 % of control | [10] 100 % of control

COc1ccc(Br)c(CCC(C)C)c1O
inactive: [11] 110 % of control | [8] 108 % of control | [15] 95 % of control | [9] 103 % of control | [16] 89 % of control | [10] 101 % of control

CC(=O)N(C)N
inactive: dose: 12.5 mg/kg/injection, schedule: Q01DX009 (ip), vehicle: saline 98 % of control | dose: 12.5 mg/kg/injection, schedule: Q04DX003 (ip), vehicle: saline 112 % of control | dose: 25.0 mg/kg/injection, schedule: Q01DX009 (ip), vehicle: saline 103 % of control | dose: 25.0 mg/kg/injection, schedule: Q04DX003 (ip), vehicle: saline 106 % of control | dose: 50.0 mg/kg/injection, schedule: Q01DX009 (ip), vehicle: saline 104 % of control | dose: 50.0 mg/kg/injection, schedule: Q04DX003 (ip), vehicle: saline 106 % of control | dose: 100.0 mg/kg/injection, schedule: Q01DX009 (ip), vehicle: saline 117 % of control | [17] 108 % of control | [18] 105 % of control

NC(=O)CN1C(=O)C2C3CCC(O3)C2C1=O (configuration not stated)
inactive: dose: 25.0 mg/kg/injection, schedule: Q04DX003 (ip), vehicle: saline with Tween-80 89 % of control | dose: 50.0 mg/kg/injection, schedule: Q04DX003 (ip), vehicle: saline with Tween-80 89 % of control | [5] 96 % of control | [17] 107 % of control | [19] 95 % of control

CCCCCCSc1ccccn1
inactive: [17] 101 % of control | [18] 107 % of control | [19] 96 % of control

O=C(c1ccccc1)c1nc2ccccc2nc1-c1ccccc1
inactive: [8] 92 % of control | [9] 92 % of control | [10] 89 % of control

CN1CCN(c2nn3nnnc3c3ccccc23)CC1
inactive: dose: 20.0 mg/kg/injection, schedule: Q04DX003 (ip), vehicle: saline 98 % of control | dose: 40.0 mg/kg/injection, schedule: Q04DX003 (ip), vehicle: saline 104 % of control | dose: 80.0 mg/kg/injection, schedule: Q04DX003 (ip), vehicle: saline 95 % of control

BrC(c1ccccc1)C(Br)[n+]1ccccc1 (configuration not stated)
inactive: dose: 75.0 mg/kg/injection, schedule: Q01DX001 (ip), vehicle: other 107 % of control

N/C(=N\OC(=O)Nc1ccc(Cl)cc1)C(Cl)(Cl)Cl
inactive: [11] 94 % of control | [15] 90 % of control

CCCCCCCCCCCC[Si](CCCCCCCCCCCC)(c1ccccc1)c1ccccc1
inactive: [12] 91 % of control | [13] 93 % of control | [14] 96 % of control

NC(=O)C[n+]1cccc(C(=O)Nc2ccc(Cl)cc2)c1
inactive: [5] 98 % of control | [6] 101 % of control

BrC1C2CC3C1C3C2c1ccccc1 (configuration not stated)
inactive: [11] 117 % of control | [8] 103 % of control | [15] 109 % of control | [9] 107 % of control | [16] 107 % of control | [10] 103 % of control

Cc1cc(C)nc(N(C)CC(=O)O)n1
inactive: dose: 50.0 mg/kg/injection, schedule: Q04DX002 (ip), vehicle: saline 100 % of control | dose: 100.0 mg/kg/injection, schedule: Q04DX002 (ip), vehicle: saline 95 % of control | dose: 200.0 mg/kg/injection, schedule: Q04DX002 (ip), vehicle: saline 103 % of control

O=c1ccn(Cc2cccc(OCCCc3ccccc3)c2)c(=O)[nH]1
inactive: [11] 96 % of control | [15] 102 % of control | [16] 97 % of control

COc1ccc(C(=O)/C=C/c2ccccc2O)cc1
inactive: dose: 75.0 mg/kg/injection, schedule: Q04DX003 (ip), vehicle: saline 104 % of control | dose: 150.0 mg/kg/injection, schedule: Q04DX003 (ip), vehicle: saline 101 % of control | dose: 300.0 mg/kg/injection, schedule: Q04DX003 (ip), vehicle: saline 96 % of control

Nc1cncnc1
inactive: [1] 112 % of control | [2] 107 % of control | [3] 98 % of control | [4] 102 % of control
